Measured values as given in patent publication US7608577B2, “Peptidyl ketones as inhibitors of DPIV” (OSI Pharmaceuticals, Inc., priority 2001, dated 2009).
pIC50, pKi: −log10 of the molar value.

Columns and labels:
Type in all cases: biochemical
[1] = molecular target: T1, dipeptidyl peptidase IV from porcine kidney (Sus scrofa, UniProt P22411); test: Ki determination, DPIV inhibition (inhibitor released from prodrug by APN); settings: for pKi: porcine kidney DPIV, substrate Gly-Pro-pNA, APN added to release inhibitor, HEPES pH7.6, read-out: Ki; for T1/2 (half-life, from enzyme activity versus reaction time): same assay as Ki, unstable competitive inhibitor
T1 construct: dipeptidyl peptidase IV from porcine kidney with a specific activity against glycylprolyl-4-nitroaniline of 37.5 U/mg; from tissue; host or cells: porcine kidney
T1 sequence (P22411 whole entry): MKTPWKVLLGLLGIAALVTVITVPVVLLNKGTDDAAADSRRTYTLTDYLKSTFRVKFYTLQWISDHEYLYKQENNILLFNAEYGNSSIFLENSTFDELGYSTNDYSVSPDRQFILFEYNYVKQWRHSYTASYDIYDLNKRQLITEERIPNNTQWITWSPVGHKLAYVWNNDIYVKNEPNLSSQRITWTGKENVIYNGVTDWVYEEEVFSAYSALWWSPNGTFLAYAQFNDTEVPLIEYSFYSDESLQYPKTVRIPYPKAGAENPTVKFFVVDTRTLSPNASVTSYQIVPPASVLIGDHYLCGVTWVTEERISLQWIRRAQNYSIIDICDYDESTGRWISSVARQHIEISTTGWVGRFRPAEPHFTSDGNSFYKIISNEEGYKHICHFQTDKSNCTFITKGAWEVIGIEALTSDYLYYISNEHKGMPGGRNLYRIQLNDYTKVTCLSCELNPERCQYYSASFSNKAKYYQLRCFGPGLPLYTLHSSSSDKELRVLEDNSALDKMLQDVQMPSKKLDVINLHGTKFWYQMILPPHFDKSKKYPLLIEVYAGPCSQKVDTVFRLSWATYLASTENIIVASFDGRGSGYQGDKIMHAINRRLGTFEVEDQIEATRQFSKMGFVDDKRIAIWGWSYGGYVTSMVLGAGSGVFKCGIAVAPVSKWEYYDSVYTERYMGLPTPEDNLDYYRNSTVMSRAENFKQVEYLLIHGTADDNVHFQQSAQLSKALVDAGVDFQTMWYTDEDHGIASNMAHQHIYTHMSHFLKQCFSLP
Procedure: 500 μl test compound in a concentration range of 1*10^−5 M-1*10^−11M were admixed with and 500 μl HEPES buffer (40 mM, pH7.6; ion strength=0.125) and 20 μl of diluted DPIV. Release of the inhibitor from the prodrug as well the monitoring reaction (DPIV-catalyzed hydrolysis of Gly-Pro-pNA) were started by addition of a mixture of 10 μl of APN stock solution (4.9 mg/ml, Sigma, Taufkirchen, Germany) with 250 μl of the substrate (Gly-Pro-pNA, 0.05-4 mM). Development of yellow color due to 4-nitroaniline release were monitored at λ=405 nm for up to 180 min using UV1 Spectrometer (ThermoSpectronic).
The Ki-values were calculated by fitting the first derivative of the time-progress curves using Graphit (v.4.0.13, Erithacus Software, Ltd, UK) and an equation for an unstable competitive inhibitor.
The half-life (t1/2) was calculated by plotting the enzyme activity versus reaction time.

[2] = molecular target: T2, Prolidase from porcine kidney (Sus scrofa, UniProt A0A5G2QQV1); test: Cross reacting enzymes: prolidase; settings: substrate Ile-Pro-OH, pH 7.6
T2 sequence (A0A5G2QQV1 1-463): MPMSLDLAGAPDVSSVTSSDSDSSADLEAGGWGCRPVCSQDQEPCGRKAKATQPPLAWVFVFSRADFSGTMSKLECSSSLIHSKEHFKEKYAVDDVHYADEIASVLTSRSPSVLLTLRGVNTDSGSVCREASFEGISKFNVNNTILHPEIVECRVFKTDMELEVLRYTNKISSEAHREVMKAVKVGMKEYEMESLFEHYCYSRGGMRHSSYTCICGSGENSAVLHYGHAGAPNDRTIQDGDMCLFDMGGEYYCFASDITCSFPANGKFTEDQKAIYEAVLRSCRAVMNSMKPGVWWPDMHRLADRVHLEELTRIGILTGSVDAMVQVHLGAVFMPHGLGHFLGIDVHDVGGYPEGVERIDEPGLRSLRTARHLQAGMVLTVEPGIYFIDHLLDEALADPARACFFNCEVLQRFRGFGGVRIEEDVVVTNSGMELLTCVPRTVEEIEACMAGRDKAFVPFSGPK
Procedure: Prolidase from porcine kidney (ICN Biomedicals, Eschwege, Germany) was solved (1 mg/ml) in assay buffer (20 mM NH4(CH3COO)2, 3 mM MnCl2, pH 7.6). In order to get a fully active enzyme the solution was incubated for 60 min at room temperature.
450 μl solution with the test compounds in an concentration range of 5*10^−3 M-5*10^−7 M were admixed with 500 μl buffer solution (20 mM NH4(CH3COO)2, pH 7.6) and 250 μl Ile-Pro-OH (0.5 mM in the assay mixture). The assay mixture was pre-incubated at 30° C. for 5 min. After pre-incubation, 75 μl Prolidase (1:10 diluted in assay buffer) was added and measurement was performed at 30° C. and λ=220 nm for 20 min using a UV/Vis photometer, UV1 (Thermo Spectromc, Cambridge, UK).
The IC 50-values were calculated using Graphit 4.0.15 (Erithacus Software, Ltd., UK).

[3] = molecular target: T3, Acylamino acid-releasing enzyme (AARE) (Homo sapiens, UniProt P13798); test: Cross reacting enzymes: AARE; settings: substrate Acetyl-Met-AMC, pH 7.2
T3 sequence (P13798 1-732): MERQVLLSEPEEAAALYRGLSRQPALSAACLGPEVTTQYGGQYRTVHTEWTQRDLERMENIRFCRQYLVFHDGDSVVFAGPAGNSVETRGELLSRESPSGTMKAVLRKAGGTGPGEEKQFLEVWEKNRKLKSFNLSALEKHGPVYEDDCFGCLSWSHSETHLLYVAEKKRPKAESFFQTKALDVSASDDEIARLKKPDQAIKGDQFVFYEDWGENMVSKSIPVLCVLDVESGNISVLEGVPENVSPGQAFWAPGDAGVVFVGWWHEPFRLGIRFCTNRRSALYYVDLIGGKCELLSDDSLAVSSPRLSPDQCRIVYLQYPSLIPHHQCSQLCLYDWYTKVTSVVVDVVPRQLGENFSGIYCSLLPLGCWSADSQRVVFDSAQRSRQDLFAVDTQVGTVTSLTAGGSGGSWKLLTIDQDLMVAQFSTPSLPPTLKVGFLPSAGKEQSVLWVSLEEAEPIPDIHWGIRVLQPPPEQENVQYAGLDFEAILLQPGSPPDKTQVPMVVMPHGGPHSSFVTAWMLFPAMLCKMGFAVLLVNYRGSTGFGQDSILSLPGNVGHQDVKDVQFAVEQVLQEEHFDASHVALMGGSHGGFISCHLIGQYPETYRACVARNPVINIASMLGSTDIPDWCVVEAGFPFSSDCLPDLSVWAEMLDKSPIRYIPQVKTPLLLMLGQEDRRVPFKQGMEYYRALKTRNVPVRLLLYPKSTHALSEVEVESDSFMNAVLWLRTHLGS
Procedure: The assay mixture was pre-incubated at 30° C. for 15 min. After pre-incubation, 50 μl Acetyl-Met-AMC solution (0.54 mM) was added. Release of the AMC was measured at 30° C. using a NOVOstar fluorescence microplate reader (BMG) and excitation/emission wavelengths of 380/460 nm.
The IC50-values were calculated from the slopes of the progress curves using Graphit 4.0.15 (Erithacus Software, Ltd., UK).

| Structure (SMILES) | pKi [1] | T1/2 (half-life, from enzyme activity versus reaction time) [1] [min] | Prolidase IC50 [2] | AARE IC50 [3] | pIC50 [2] |
| --- | --- | --- | --- | --- | --- |
| Br.CC(=O)OCC(=O)[C@@H]1CCCN1C(=O)[C@@H](NC(=O)[C@H](C)N)C(C)C [H-Ala-Val-Pro-CH2O—CO—CH3*HBr, 2-[(Acetyloxy-methyl)carbonyl]-1-N-[(L)-Alanyl-(L)-Valinyl]-(2S)-pyrrolidine hydrobromide] | 8.98 | 10.8 | no inhibition | no inhibition |  |
| Br.CC(C)[C@H](NC(=O)[C@H](C)N)C(=O)N1CCC[C@H]1C(=O)COC(=O)c1ccccc1 [H-Ala-Val-Pro-CO—CH2O—CO—Ph*HBr, 2-[(Benzoyloxy-methyl)carbonyl]-1-N-[{(L)-Alanyl}-(L)-Valinyl]-(2S)-pyrrolidine hydrobromide] | 9.27 | 15.1 |  | no inhibition | 3.38 |
| Br.CC(=O)[C@@H]1CCCN1C(=O)[C@@H](NC(=O)[C@H](C)N)C(C)C [H-Ala-Val-Pro-Me*HBr, 2-Methylcarbonyl-1-N-[(L)-Alanyl-(L)-Valinyl]-(2S)-pyrrolidine hydrobromide] | 7.32 | 12.4 |  | no inhibition | 3.38 |
